Here are results for 2 substances from patent US9102752B2, “Peptide vaccine for prevention and immunotherapy of dementia of the Alzheimer's type” (United Biomedical, Inc., priority 2013, dated 2015).

Experiment [1] deals with anti-Aβ antibodies in macaque antisera. Nature of the experiment: Specificity analysis (10-mer peptide ELISA) of antisera from Cynomolgus macaques. Format: binding.
In experiment [2] the test system is anti-Aβ antibodies in sera of vaccinated patients. Nature of the experiment: Epitope mapping, competitive binding inhibition EIA with patient sera (10-mer peptides, IC50). To be noted: for Epitope mapping, fine specificity analysis, serum of subject P101: serum 16 wpi of vaccinated patient P101; for Epitope mapping, fine specificity analysis, serum of subject P102: serum 16 wpi of vaccinated patient P102; for Epitope mapping, fine specificity analysis, serum of subject P103: serum 16 wpi of vaccinated patient P103; for Epitope mapping, fine specificity analysis, serum of subject P104: serum 16 wpi of vaccinated patient P104; for Epitope mapping, fine specificity analysis, serum of subject P105: serum 16 wpi of vaccinated patient P105; for Epitope mapping, fine specificity analysis, serum of subject P106: serum 16 wpi of vaccinated patient P106; for Epitope mapping, fine specificity analysis, serum of subject P107: serum 16 wpi of vaccinated patient P107; for Epitope mapping, fine specificity analysis, serum of subject P108: serum 16 wpi of vaccinated patient P108; for Epitope mapping, fine specificity analysis, serum of subject P109: serum 16 wpi of vaccinated patient P109; for Epitope mapping, fine specificity analysis, serum of subject P201: serum 16 wpi of vaccinated patient P201; for Epitope mapping, fine specificity analysis, serum of subject P202: serum 16 wpi of vaccinated patient P202; for Epitope mapping, fine specificity analysis, serum of subject P203: serum 16 wpi of vaccinated patient P203; for Epitope mapping, fine specificity analysis, serum of subject P204: serum 16 wpi of vaccinated patient P204; for Epitope mapping, fine specificity analysis, serum of subject P205: serum 16 wpi of vaccinated patient P205; for Epitope mapping, fine specificity analysis, serum of subject P206: serum 16 wpi of vaccinated patient P206; for Epitope mapping, fine specificity analysis, serum of subject P207: serum 16 wpi of vaccinated patient P207; for Epitope mapping, fine specificity analysis, serum of subject P208: serum 16 wpi of vaccinated patient P208; for Epitope mapping, fine specificity analysis, serum of subject P209: serum 16 wpi of vaccinated patient P209; for Epitope mapping, fine specificity analysis, serum of subject P210: serum 16 wpi of vaccinated patient P210. Set-up: species or system human; Epitope mapping, fine specificity analysis, serum of subject P210: unit not given here.

[3] abbreviates: antisera of macaques given UBI AD Vaccine 150 μg/dose, 9 WPI.
Where [4] appears, read: antisera of macaques given UBI AD Vaccine 150 μg/dose, 15 WPI.
Where [5] appears, read: antisera of macaques given UBI AD Vaccine 750 μg/dose, 9 WPI.
Setting [6] is: antisera of macaques given UBI AD Vaccine 750 μg/dose, 15 WPI.

Regarding “13 (EVKMDAEFRH; PROPEP (1)..(10) Abeta -4-6 or APP 770(E668-H677); listed as Homo sapiens) [compound 13]”, the “Reactivity of antisera with peptide (specificity analysis ELISA)” value (“Reactivity of antisera with peptide” below) in experiment [1] (setting [3]) was found to be 0.046. Further, the “Reactivity of antisera with peptide” value in experiment [1] (setting [4]) worked out at 0.047. For the same substance, in experiment [1] (setting [5]), the “Reactivity of antisera with peptide” value was 0.054. Further, the “Reactivity of antisera with peptide” value in experiment [1] (setting [6]) was 0.047. Also, in experiment [2], the “Epitope mapping, fine specificity analysis, serum of subject P101” value was 1; the “Epitope mapping, fine specificity analysis, serum of subject P102” value turned out to be 0; the “Epitope mapping, fine specificity analysis, serum of subject P103” value is listed as 0; the “Epitope mapping, fine specificity analysis, serum of subject P104” value was determined as 0. In addition, in experiment [2], the “Epitope mapping, fine specificity analysis, serum of subject P105” value is reported as 0; the “Epitope mapping, fine specificity analysis, serum of subject P106” value was determined as 0; the “Epitope mapping, fine specificity analysis, serum of subject P107” value is 0; the “Epitope mapping, fine specificity analysis, serum of subject P108” value was found to be 0. Also, in experiment [2], the “Epitope mapping, fine specificity analysis, serum of subject P109” value is listed as 0; the “Epitope mapping, fine specificity analysis, serum of subject P201” value is 58; the “Epitope mapping, fine specificity analysis, serum of subject P202” value turned out to be 0; the “Epitope mapping, fine specificity analysis, serum of subject P203” value is on record as 0. In experiment [2], the “Epitope mapping, fine specificity analysis, serum of subject P204” value is given as 0; the “Epitope mapping, fine specificity analysis, serum of subject P205” value was determined as 0; the “Epitope mapping, fine specificity analysis, serum of subject P206” value stood at 0; the “Epitope mapping, fine specificity analysis, serum of subject P207” value stood at 1. For the same substance, in experiment [2], the “Epitope mapping, fine specificity analysis, serum of subject P208” value is listed as 0; the “Epitope mapping, fine specificity analysis, serum of subject P209” value was found to be 0; the “Epitope mapping, fine specificity analysis, serum of subject P210” value amounted to 0.
“14 (VKMDAEFRHD; PEPTIDE (1)..(10) Abeta -3-7 or APP 770(V669-D678); listed as Homo sapiens) [compound 14]”: in experiment [1] (setting [3]), the “Reactivity of antisera with peptide” value was determined as 0.068. Further, the “Reactivity of antisera with peptide” value in experiment [1] (setting [4]) was found to be 0.053. In addition, in experiment [1] (setting [5]), the “Reactivity of antisera with peptide” value came to 0.061. Further, the “Reactivity of antisera with peptide” value in experiment [1] (setting [6]) is 0.054. In experiment [2], the “Epitope mapping, fine specificity analysis, serum of subject P101” value came to 31; the “Epitope mapping, fine specificity analysis, serum of subject P102” value was 0; the “Epitope mapping, fine specificity analysis, serum of subject P103” value came out at 0; the “Epitope mapping, fine specificity analysis, serum of subject P104” value is 0. In addition, in experiment [2], the “Epitope mapping, fine specificity analysis, serum of subject P105” value was found to be 0; the “Epitope mapping, fine specificity analysis, serum of subject P106” value is 0; the “Epitope mapping, fine specificity analysis, serum of subject P107” value worked out at 0; the “Epitope mapping, fine specificity analysis, serum of subject P108” value is reported as 0. Also, in experiment [2], the “Epitope mapping, fine specificity analysis, serum of subject P109” value is 0; the “Epitope mapping, fine specificity analysis, serum of subject P201” value is recorded as 0; the “Epitope mapping, fine specificity analysis, serum of subject P202” value is 0; the “Epitope mapping, fine specificity analysis, serum of subject P203” value stood at 0. Further, in experiment [2], the “Epitope mapping, fine specificity analysis, serum of subject P204” value was found to be 1; the “Epitope mapping, fine specificity analysis, serum of subject P205” value is given as 0; the “Epitope mapping, fine specificity analysis, serum of subject P206” value is 0; the “Epitope mapping, fine specificity analysis, serum of subject P207” value is on record as 0. Further, in experiment [2], the “Epitope mapping, fine specificity analysis, serum of subject P208” value worked out at 0; the “Epitope mapping, fine specificity analysis, serum of subject P209” value turned out to be 0; the “Epitope mapping, fine specificity analysis, serum of subject P210” value is on record as 13.
